In brackets after ≈: the same amount, converted by molar mass.
Legend:
Format in all cases: functional
[1] = Antioxidant activity against ferric chloride-induced lipid peroxidation using egg lecithin at 0.1 ug/ml after 1 hr
[2] = Antioxidant activity against ferric chloride-induced lipid peroxidation using egg lecithin at 0.75 ug/ml after 1 hr
[3] = Antioxidant activity against ferric chloride-induced lipid peroxidation using egg lecithin at 50 ug/ml after 1 hr
[4] = Antioxidant activity against ferric chloride-induced lipid peroxidation using egg lecithin at 1 ug/ml after 1 hr
[5] = Antioxidant activity against ferric chloride-induced lipid peroxidation using egg lecithin at 5 ug/ml after 1 hr
[6] = Antioxidant activity against ferric chloride-induced lipid peroxidation using egg lecithin at 0.25 ug/ml after 1 hr
[7] = Antioxidant activity against ferric chloride-induced lipid peroxidation using egg lecithin at 0.5 ug/ml after 1 hr
[8] = Antioxidant activity against ferric chloride-induced lipid peroxidation using egg lecithin at 0.05 ug/ml after 1 hr
[9] = Antioxidant activity against ferric chloride-induced lipid peroxidation using egg lecithin at 2.5 ug/ml after 1 hr
[10] = Antioxidant activity against ferric chloride-induced lipid peroxidation using egg lecithin at 10 ug/ml after 1 hr
[11] = Antioxidant activity against ferric chloride-induced lipid peroxidation using egg lecithin at 0.01 ug/ml after 1 hr
[12] = Antioxidant activity against ferric chloride-induced lipid peroxidation using egg lecithin at 100 ug/ml after 1 hr
Klebsiella pneumoniae [13] = test: Antimicrobial activity against Klebsiella pneumoniae MTCC 3384 at 50 ug/ml after 24 hrs by agar disc diffusion method; settings: MTCC 3384, 24 h, read-out: DIZ
Aspergillus flavus [14] = test: Antimicrobial activity against Aspergillus flavus MTCC 873 at 100 ug/ml after 24 hrs by agar disc diffusion method; settings: MTCC 873, 24 h, read-out: DIZ
[15] = Antioxidant activity assessed as reducing power of ferric ion at 50 ug/ml after 20 mins; set-up: scale not given: the % may be the effect or the level left
[16] = Antioxidant activity assessed as reducing power of ferric ion at 100 ug/ml after 20 mins; set-up: scale not given: the % may be the effect or the level left
Aspergillus niger [17] = test: Antimicrobial activity against Aspergillus niger MTCC 281 at 100 ug/ml after 24 hrs by agar disc diffusion method; settings: MTCC 281, 24 h, read-out: DIZ
Staphylococcus aureus [18] = test: Antimicrobial activity against Staphylococcus aureus MTCC 96 at 50 ug/ml after 24 hrs by agar disc diffusion method; settings: MTCC 96, 24 h, read-out: DIZ
Aspergillus niger [19] = test: Antimicrobial activity against Aspergillus niger MTCC 281
Escherichia coli [20] = test: Antimicrobial activity against Escherichia coli MTCC 724
Aspergillus flavus [21] = test: Antimicrobial activity against Aspergillus flavus MTCC 873
Aspergillus niger [22] = test: Antimicrobial activity against Aspergillus niger MTCC 281 at 50 ug/ml after 24 hrs by agar disc diffusion method; settings: MTCC 281, 24 h, read-out: DIZ
Staphylococcus aureus [23] = test: Antimicrobial activity against Staphylococcus aureus MTCC 96 at 100 ug/ml after 24 hrs by agar disc diffusion method; settings: MTCC 96, 24 h, read-out: DIZ
Staphylococcus aureus [24] = test: Antimicrobial activity against Staphylococcus aureus MTCC 96
Shigella flexneri [25] = test: Antimicrobial activity against Shigella flexneri MTCC 1457 at 50 ug/ml after 24 hrs by agar disc diffusion method; settings: MTCC 1457, 24 h, read-out: DIZ
Aspergillus flavus [26] = test: Antimicrobial activity against Aspergillus flavus MTCC 873 at 50 ug/ml after 24 hrs by agar disc diffusion method; settings: MTCC 873, 24 h, read-out: DIZ
Escherichia coli [27] = test: Antimicrobial activity against Escherichia coli MTCC 724 at 50 ug/ml after 24 hrs by agar disc diffusion method; settings: MTCC 724, 24 h, read-out: DIZ
[28] = Antiinflammatory activity against heat-induced albumin denaturation at […] preincubated for 15 mins before heat induction by UV-vis spectrophotometer analysis
Shigella flexneri [29] = test: Antimicrobial activity against Shigella flexneri MTCC 1457
Shigella flexneri [30] = test: Antimicrobial activity against Shigella flexneri MTCC 1457 at 100 ug/ml after 24 hrs by agar disc diffusion method; settings: MTCC 1457, 24 h, read-out: DIZ
Bacillus cereus [31] = test: Antimicrobial activity against Bacillus cereus MTCC 8372
[32] = tested on: Radical scavenging activity; test: Antioxidant activity assessed as DPPH free radical scavenging activity at 10 ug/ml after 20 mins
Escherichia coli [33] = test: Antimicrobial activity against Escherichia coli MTCC 724 at 100 ug/ml after 24 hrs by agar disc diffusion method; settings: MTCC 724, 24 h, read-out: DIZ
Bacillus cereus [34] = test: Antimicrobial activity against Bacillus cereus MTCC 8372 at 50 ug/ml after 24 hrs by agar disc diffusion method; settings: MTCC 8372, 24 h, read-out: DIZ
[35] = tested on: Radical scavenging activity; test: Antioxidant activity assessed as DPPH free radical scavenging activity at 50 ug/ml after 20 mins
Bacillus cereus [36] = test: Antimicrobial activity against Bacillus cereus MTCC 8372 at 100 ug/ml after 24 hrs by agar disc diffusion method; settings: MTCC 8372, 24 h, read-out: DIZ
Klebsiella pneumoniae [37] = test: Antimicrobial activity against Klebsiella pneumoniae MTCC 3384 at 100 ug/ml after 24 hrs by agar disc diffusion method; settings: MTCC 3384, 24 h, read-out: DIZ
[38] = Antioxidant activity assessed as reducing power of ferric ion at 10 ug/ml after 20 mins; set-up: scale not given: the % may be the effect or the level left
[39] = tested on: Radical scavenging activity; test: Antioxidant activity assessed as DPPH free radical scavenging activity at 100 ug/ml after 20 mins
Klebsiella pneumoniae [40] = test: Antimicrobial activity against Klebsiella pneumoniae MTCC 3384

Work on VITAMIN E yielded an inhibition [1] of 3.4%, an inhibition [2] of 7.7% and an inhibition [3] of 62%. The inhibition [4] was 9.3%, the inhibition [5] was 26% and the inhibition [6] was 4.1%. The inhibition [7] was 6%, the inhibition [8] was 2% and the inhibition [9] was 17%. For the same compound, the inhibition [10] was 47%, the inhibition [11] was 1.2% and the inhibition [12] was 92%.
Work on `COc1ccc(C2=NN(c3ccccc3)C(c3noc(-c4ccccc4OC)n3)C2)cc1` (centres undefined) yielded a zone of inhibition at 50 µg/mL (Klebsiella pneumoniae [13]) of 7 mm, a zone of inhibition at 100 µg/mL (Aspergillus flavus [14]) of 12 mm and an Activity [15] of 24%. For the same compound, the Activity [16] was 65%, the inhibition [3] was 33% and the zone of inhibition at 100 µg/mL (Aspergillus niger [17]) was 22 mm. For the same compound, the zone of inhibition at 50 µg/mL (Staphylococcus aureus [18]) was 4 mm, the MIC (Aspergillus niger [19]) was 10 µg/mL (≈ 23.4 µM) and the MIC (Escherichia coli [20]) was 25 µg/mL (≈ 58.6 µM). It also gave an MIC (Aspergillus flavus [21]) of 15 µg/mL (≈ 35.2 µM), a zone of inhibition at 50 µg/mL (Aspergillus niger [22]) of 12 mm and a zone of inhibition at 100 µg/mL (Staphylococcus aureus [23]) of 8 mm. For the same compound, the MIC (Staphylococcus aureus [24]) was 35 µg/mL (≈ 82.1 µM), the zone of inhibition at 50 µg/mL (Shigella flexneri [25]) was 6 mm and the zone of inhibition at 50 µg/mL (Aspergillus flavus [26]) was 10 mm. It also gave a zone of inhibition at 50 µg/mL (Escherichia coli [27]) of 6 mm, an inhibition [28] of 27.1% and an MIC (Shigella flexneri [29]) of 25 µg/mL (≈ 58.6 µM). The zone of inhibition at 100 µg/mL (Shigella flexneri [30]) was 10 mm, the MIC (Bacillus cereus [31]) was 35 µg/mL (≈ 82.1 µM) and the inhibition [10] was 21%. It also gave an Activity [32] of 20%, a zone of inhibition at 100 µg/mL (Escherichia coli [33]) of 8 mm and a zone of inhibition at 50 µg/mL (Bacillus cereus [34]) of 4 mm. The Activity [35] was 41%, the zone of inhibition at 100 µg/mL (Bacillus cereus [36]) was 8 mm and the zone of inhibition at 100 µg/mL (Klebsiella pneumoniae [37]) was 8 mm. The Activity [38] was 11%, the Activity [39] was 53% and the inhibition [12] was 57%. The MIC (Klebsiella pneumoniae [40]) was 25 µg/mL (≈ 58.6 µM).
For `Clc1ccc(C2=NN(c3ccccc3)C(c3noc(-c4ccccc4)n3)C2)cc1` (centres undefined), the zone of inhibition at 50 µg/mL (Klebsiella pneumoniae [13]) was 6 mm, the zone of inhibition at 100 µg/mL (Aspergillus flavus [14]) was 18 mm and the Activity [15] was 26%. It also gave an Activity [16] of 62%, an inhibition [3] of 44% and a zone of inhibition at 100 µg/mL (Aspergillus niger [17]) of 18 mm. For the same compound, the zone of inhibition at 50 µg/mL (Staphylococcus aureus [18]) was 3 mm, the MIC (Aspergillus niger [19]) was 15 µg/mL (≈ 37.4 µM) and the MIC (Escherichia coli [20]) was 45 µg/mL (≈ 112 µM). The MIC (Aspergillus flavus [21]) was 10 µg/mL (≈ 24.9 µM), the zone of inhibition at 50 µg/mL (Aspergillus niger [22]) was 9 mm and the zone of inhibition at 100 µg/mL (Staphylococcus aureus [23]) was 11 mm. The MIC (Staphylococcus aureus [24]) was 50 µg/mL (≈ 125 µM), the zone of inhibition at 50 µg/mL (Shigella flexneri [25]) was 6 mm and the zone of inhibition at 50 µg/mL (Aspergillus flavus [26]) was 12 mm. For the same compound, the zone of inhibition at 50 µg/mL (Escherichia coli [27]) was 4 mm, the inhibition [28] was 60% and the MIC (Shigella flexneri [29]) was 25 µg/mL (≈ 62.4 µM). It also gave a zone of inhibition at 100 µg/mL (Shigella flexneri [30]) of 8 mm, an MIC (Bacillus cereus [31]) of 30 µg/mL (≈ 74.8 µM) and an inhibition [10] of 31%. The Activity [32] was 23%, the zone of inhibition at 100 µg/mL (Escherichia coli [33]) was 10 mm and the zone of inhibition at 50 µg/mL (Bacillus cereus [34]) was 5 mm. The Activity [35] was 40%, the zone of inhibition at 100 µg/mL (Bacillus cereus [36]) was 8 mm and the zone of inhibition at 100 µg/mL (Klebsiella pneumoniae [37]) was 8 mm. The Activity [38] was 13%, the Activity [39] was 68% and the inhibition [12] was 71%. For the same compound, the MIC (Klebsiella pneumoniae [40]) was 25 µg/mL (≈ 62.4 µM).

Reference: ChEMBL document CHEMBL2406981, “Novel pyrazoline amidoxime and their 1,2,4-oxadiazole analogues: synthesis and pharmacological screening” (Bioorg Med Chem Lett, 2013)
